According to article PMC6272192, “Synthesis and Biological Evaluation of N-Alkyl-3-(alkylamino)-pyrazine-2-carboxamides” (Molecules, 2015):
Converted amounts (≈) assume the structure as drawn.

Columns and labels:
[1] = system: aromatic amino acids in spinach chloroplasts; assay: fluorescence of aromatic amino acids in spinach chloroplasts; type: biochemical, Spinacia oleracea L.; conditions: excitation 275 nm, chlorophyll 10 mg/L
Procedure: The fluorescence emission spectra of aromatic amino acids (AAA) in spinach chloroplasts were recorded on fluorescence spectrophotometer F-2000 (Hitachi, Tokyo, Japan) using excitation wavelength λex = 275 nm for monitoring AAA fluorescence, excitation slit 20 nm and emission slit 10 nm. The samples were kept in the dark for 2 min before measuring. The phosphate buffer used for dilution of the chloroplast suspension was the same as described above. Due to low aqueous solubility the compounds were added to chloroplast suspension in DMSO solution. The DMSO concentration in all samples was the same as in the control (10%). The chlorophyll concentration in chloroplast suspension was 10 mg/L.

M. tuberculosis H37Rv = assay: in vitro antimycobacterial activity, microdilution panel method; type: cell-based, Mycobacterium tuberculosis; conditions: Mycobacterium tuberculosis, 336 h, Middlebrook 7H9, Alamar Blue after 14 days, read-out: MIC M. tuberculosis
Staphylococcus aureus = assay: in vitro antibacterial activity, microdilution broth method; type: cell-based
Procedure: Microdilution broth method. Antibacterial evaluation was performed against bacterial strains from Czech Collection of Microorganisms (Brno, Czech Republic) (Staphylococcus aureus CCM 4516/08, Escherichia coli CCM 4517, Pseudomonas aeruginosa CCM 1961) or clinical isolates from Department of Clinical Microbiology, University Hospital and Faculty of Medicine in Hradec Králové, Charles University in Prague, Czech Republic (Staphylococcus aureus H 5996/08-methicilin resistant (MRSA), Staphylococcus epidermidis H 6966/08, Enterococcus sp. J 14365/08, Klebsiella pneumoniae D 11750/08, Klebsiella pneumoniae J 14368/08-ESBL positive). All strains were subcultured on Mueller-Hinton agar (MHA) (Difco/Becton Dickinson, Detroit, MI, USA) at 35 °C and maintained on the same medium at 4 °C. The compounds were dissolved in DMSO, and the antibacterial activity was determined in Mueller-Hinton liquid broth (Difco/Becton Dickinson), buffered to pH 7.0. Controls consisted of medium and DMSO alone. […] The standards were neomycin, bacitracin, penicillin G, ciprofloxacin and phenoxymethylpenicilin.

[2] = system: photosystem 2 photosynthetic electron transport (PET) in spinach chloroplasts; assay: inhibition of photosynthetic electron transport (PET) in spinach chloroplasts (Hill reaction, DCPIP); type: biochemical, Spinacia oleracea L.; conditions: spinach chloroplasts, DCPIP photoreduction; read-out: IC50 (PET-inhibiting activity)
Procedure: Chloroplasts were prepared from spinach (Spinacia oleracea L.) according to Masarovicova and Kralova. The inhibition of photosynthetic electron transport (PET) in spinach chloroplasts was determined spectrophotometrically (Genesys 6, Thermo Electron Scientific Instruments, Madison, WI, USA), using an artificial electron acceptor 2,6-dichlorophenol-indophenol (DCPIP) according to Kralova et al., and the rate of photosynthetic electron transport (PET) was monitored as a photoreduction of DCPIP. The measurements were carried out in phosphate buffer (0.02 mol/L, pH 7.2) containing sucrose (0.4 mol/L), MgCl2 (0.005 mol/L) and NaCl (0.015 mol/L). The chlorophyll content was 30 mg/L in these experiments and the samples were irradiated (~100 W/m^2 with 10 cm distance) with a halogen lamp (250 W) using a 4 cm water filter to prevent warming of the samples (suspension temperature 22 °C). The studied compounds were dissolved in DMSO due to their limited water solubility. […] The inhibitory efficiency of the studied compounds was expressed by IC50 values, i.e., by molar concentration of the compounds causing 50% PET inhibition relative to the untreated control.

[3] = determination of lipophilicity by HPLC (log k); conditions: HPLC capacity factor, C18 column, MeOH 70% / H2O 30%
Description: Instrumentation: Agilent Technologies 1200 SL liquid chromatograph with Diode-array Detector SL G1315C (Agilent Technologies Inc., Colorado Springs, CO, USA); pre-column ZORBAX XDB-C18 5 μm, 4 × 4 mm, Part No. 7995118-504 (Agilent Technologies Inc.) and column ZORBAX Eclipse XDB-C18 5 μm, 4.6 × 250 mm, Part No. 7995118-585 (Agilent Technologies Inc.). The separation process was controlled by Agilent ChemStation, version B.04.02 extended by spectral module (Agilent Technologies Inc.). Mobile phase consisted of MeOH (HPLC grade, 70%) and H2O (HPLC-Milli-Q Grade, 30%). Conditions: Flow rate 1.0 mL/min, sample injection volume 20 μL, column temperature 30 °C, detection wavelength 210 nm, monitor wavelength 270 nm. Retention times (tR) were measured in minutes. The dead time of the system (tD) was determined as the retention time of KI methanol solution. Capacity factors k for individual compounds were calculated according to the formula k = (tR − tD)/tD. Log k, calculated from the capacity factor k, is used as the lipophilicity index converted to log scale.

Row | Structure (SMILES) | slope of dependence of aromatic amino acid fluorescence intensity (% of control) on compound concentration [1] | MIC (M. tuberculosis H37Rv) [µg/mL] | MIC (Staphylococcus aureus) [µM] | IC50 [2] [µM] | log k [3]
1 | CCCCCCCCNc1nccnc1C(=O)NC [Compound 16, N-Methyl-3-(octylamino)pyrazine-2-carboxamide] | −0.668 | 25 (≈ 94.6 µM) | 250 (≈ 66.1 µg/mL) | 64 | 1.359
2 | CCCCCNC(=O)c1nccnc1NCCCCC [Compound 27, N-Pentyl-3-(pentylamino)pyrazine-2-carboxamide] | −0.211 | > 100 | – | 105 | 1.557
